Data published in US12344610B2, “APOL1 inhibitors and methods of use” (Maze Therapeutics, Inc., priority 2022, dated 2025).

Experiments:
[1] = system: HEK293 clonal cell line overexpressing APOL1 G1; test: APOL1 G1 HEK293 cell rescue assay (Example B3); format: cell-based; details: Homo sapiens, HEK293, HEK293 clonal line overexpressing APOL1 G1; geometric mean of at least 2 runs; † = single run; ¥ = concentration at 50% rescue estimated (no sigmoidal curve)
How it was run: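 HEK293 clonal line overexpressing APOL1 G1; EC50 is half-maximal reversal of APOL1-induced cell death. Values are the geometric mean of ≥2 runs on separate days, each run the average of duplicate wells. Where no sigmoidal curve could be fitted, the concentration giving 50% rescue was estimated.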

[2] = system: Trypanosoma brucei Lister 427 VSG221 with APOL1 G0 recombinant protein; test: APOL1 G0 trypanosome cell rescue assay (Example B5); format: cell-based; details: Trypanosoma brucei, 20 h, read-out: APOL1 G0 Trypanosome Rescue EC50, Trypanosoma brucei Lister 427 VSG221 with APOL1 G0 recombinant protein, 20 hours, CellTiter-Glo; geometric mean of at least 2 assay runs; † = single assay run
How it was run: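 Compounds in duplicate 2-fold, 11-point series with 0.4% DMSO final. Next, tag-free mature APOL1 variant protein went in from a 2 μg/mL solution, then trypanosomes to 250 per well. Plates incubated 20 h humidified at 37° C, equilibrated to room temperature, and CellTiter-Glo added for luminescence.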

Compound	EC50 [1]	EC50 [2]
O=C1CCc2cc(OCCN3CCC4(CC3)C(=O)Nc3ccc(Cl)cc34)ccc2N1C1COC1 [Compound 99, 5-chloro-1′-(2-{[1-(oxetan-3-yl)-2-oxo-1,2,3,4-tetrahydroquinolin-6-yl]oxy}ethyl)-1,2-dihydrospiro[indole-3,4′-piperidin]-2-one]	205 nM	216 nM
CS(=O)(=O)c1ccc(OCCN2CCC3(CC2)C(=O)Nc2ccc(C#N)cc23)cc1C(F)F [Compound 100, 1′-{2-[3-(difluoromethyl)-4-methanesulfonylphenoxy]ethyl}-2-oxo-1,2-dihydrospiro[indole-3,4′-piperidine]-5-carbonitrile]	134 nM	63.5 nM
CS(=O)(=O)C1(c2ccc(OCCN3CCC4(CC3)C(=O)Nc3ccc(C#N)cc34)cc2)CC1 [Compound 101, 1′-{2-[4-(1-methanesulfonylcyclopropyl)phenoxy]ethyl}-2-oxo-1,2-dihydrospiro[indole-3,4′-piperidine]-5-carbonitrile]	248 nM	195 nM
CS(=O)(=O)C1(c2ccc(OCCN3CCC4(CC3)C(=O)Nc3ccc(Cl)cc34)cc2)CC1 [Compound 102, 5-chloro-1′-{2-[4-(1-methanesulfonylcyclopropyl)phenoxy]ethyl}-1,2-dihydrospiro[indole-3,4′-piperidin]-2-one]	111 nM	47.3 nM
CN1c2ccc(OCCN3CCC4(CC3)C(=O)Nc3ccc(Cl)cc34)cc2CCS1(=O)=O [Compound 103, 6-(2-{5-chloro-2-oxo-1,2-dihydrospiro[indole-3,4′-piperidin]-1′-yl}ethoxy)-1-methyl-3,4-dihydro-1H-2λ^6,1-benzothiazine-2,2-dione]	124 nM	113 nM
CN1c2ccc(OCCN3CCC4(CC3)C(=O)Nc3ccc(C#N)cc34)cc2CCS1(=O)=O [Compound 104, 1′-{2-[(1-methyl-2,2-dioxo-3,4-dihydro-1H-2λ^6,1-benzothiazin-6-yl)oxy]ethyl}-2-oxo-1,2-dihydrospiro[indole-3,4′-piperidine]-5-carbonitrile]	356 nM	583 nM
N#Cc1ccc2c(c1)C1(CCN(CCOc3ccc4c(c3)CCC(=O)N4CC(F)F)CC1)C(=O)N2 [Compound 105, 1′-(2-{[1-(2,2-difluoroethyl)-2-oxo-1,2,3,4-tetrahydroquinolin-6-yl]oxy}ethyl)-2-oxo-1,2-dihydrospiro[indole-3,4′-piperidine]-5-carbonitrile]	175 nM	217 nM
O=C1CCc2cc(OCCN3CCC4(CC3)C(=O)Nc3ccc(Cl)cc34)ccc2N1CC(F)F [Compound 106, 5-chloro-1′-(2-{[1-(2,2-difluoroethyl)-2-oxo-1,2,3,4-tetrahydroquinolin-6-yl]oxy}ethyl)-1,2-dihydrospiro[indole-3,4′-piperidin]-2-one]	122 nM	69 nM
CS(=O)(=O)c1ccc(OCCN2CCC3(CC2)C(=O)Nc2ccc(C#N)cc23)cc1C(F)(F)F [Compound 107, 1′-{2-[4-methanesulfonyl-3-(trifluoromethyl)phenoxy]ethyl}-2-oxo-1,2-dihydrospiro[indole-3,4′-piperidine]-5-carbonitrile]	120 nM	57.2 nM
CS(=O)(=O)c1ccc(OCCN2CCC3(CC2)C(=O)Nc2ccc(Cl)cc23)cc1C(F)(F)F [Compound 108, 5-chloro-1′-{2-[4-methanesulfonyl-3-(trifluoromethyl)phenoxy]ethyl}-1,2-dihydrospiro[indole-3,4′-piperidin]-2-one]	49.7 nM	23.3 nM
CS(=O)(=O)C1(c2ccc(OCCN3CCC4(CC3)C(=O)Nc3ccc(C#N)cc34)cc2)COC1 [Compound 109, 1′-{2-[4-(3-methanesulfonyloxetan-3-yl)phenoxy]ethyl}-2-oxo-1,2-dihydrospiro[indole-3,4′-piperidine]-5-carbonitrile]	321 nM	320 nM
Cc1cc(OCCN2CCC3(CC2)C(=O)Nc2ccc(Cl)cc23)ccc1S(C)(=O)=O [Compound 110, 5-chloro-1′-[2-(4-methanesulfonyl-3-methylphenoxy)ethyl]-1,2-dihydrospiro[indole-3,4′-piperidin]-2-one]	100 nM	71.4 nM
Cc1cc(OCCN2CCC3(CC2)C(=O)Nc2ccc(C#N)cc23)ccc1S(C)(=O)=O [Compound 111, 1′-[2-(4-methanesulfonyl-3-methylphenoxy)ethyl]-2-oxo-1,2-dihydrospiro[indole-3,4′-piperidine]-5-carbonitrile]	246 nM	282 nM
O=C1Nc2ccc(Cl)cc2C12CCN(CCOc1ccc(S(=O)(=O)C(F)F)cc1)CC2 [Compound 112, 5-chloro-1′-[2-(4-difluoromethanesulfonylphenoxy)ethyl]-1,2-dihydrospiro[indole-3,4′-piperidin]-2-one]	77.5 nM	58.2 nM
N#Cc1ccc2c(c1)C1(CCN(CCOc3ccc(S(=O)(=O)C(F)F)cc3)CC1)C(=O)N2 [Compound 113, 1′-[2-(4-difluoromethanesulfonylphenoxy)ethyl]-2-oxo-1,2-dihydrospiro[indole-3,4′-piperidine]-5-carbonitrile]	176 nM	124 nM
O=C1CCc2cc(OCCN3CCC4(CC3)C(=O)Nc3ccc(Cl)cc34)ccc2N1[C@H]1C[C@@H](O)C1 [Compound 114, 5-chloro-1′-[2-({2-oxo-1-[(cis)-3-hydroxycyclobutyl]-1,2,3,4-tetrahydroquinolin-6-yl}oxy)ethyl]-1,2-dihydrospiro[indole-3,4′-piperidin]-2-one]	128 nM	108 nM
CN(c1c(F)cc(OCCN2CCC3(CC2)C(=O)Nc2ccc(Cl)cc23)cc1F)S(C)(=O)=O [Compound 127, N-[4-(2-{5-chloro-2-oxo-1,2-dihydrospiro[indole-3,4′-piperidin]-1′-yl}ethoxy)-2,6-difluorophenyl]-N-methylmethanesulfonamide]	61 nM	64.9 nM
CN(c1c(F)cc(OCCN2CCC3(CC2)C(=O)Nc2ccc(C#N)cc23)cc1F)S(C)(=O)=O [Compound 128, N-[4-(2-{5-cyano-2-oxo-1,2-dihydrospiro[indole-3,4′-piperidin]-1′-yl}ethoxy)-2,6-difluorophenyl]-N-methylmethanesulfonamide]	158 nM	269 nM
Cc1cc(OCCN2CCC3(CC2)C(=O)Nc2ccc(Cl)cc23)cc(C)c1S(C)(=O)=O [Compound 129, 5-chloro-1′-[2-(4-methanesulfonyl-3,5-dimethylphenoxy)ethyl]-1,2-dihydrospiro[indole-3,4′-piperidin]-2-one]	72.8 nM	65.2 nM
Cn1c(=O)oc2cc(OCCN3CCC4(CC3)C(=O)Nc3ccc(Cl)cc34)ccc21 [Compound 131, 5-chloro-1′-{2-[(3-methyl-2-oxo-2,3-dihydro-1,3-benzoxazol-6-yl)oxy]ethyl}-1,2-dihydrospiro[indole-3,4′-piperidin]-2-one]	186 nM	132 nM
Cn1c(=O)oc2cc(OCCN3CCC4(CC3)C(=O)Nc3ccc(C#N)cc34)ccc21 [Compound 132, 1′-{2-[(3-methyl-2-oxo-2,3-dihydro-1,3-benzoxazol-6-yl)oxy]ethyl}-2-oxo-1,2-dihydrospiro[indole-3,4′-piperidine]-5-carbonitrile]	685 nM	525 nM
